Results published in ChEMBL document CHEMBL3638995, “Disubstituted 3,4-diamino-3-cyclobutene-1,2-dione compounds for use in the treatment of chemokine-mediated pathologies” (2015).

Key:
[1] = target: T1, C-X-C chemokine receptor type 1 (Homo sapiens, UniProt P25024); assay: (§1) Assay Drug Dev Technol. 2007 February; 5(1); 137-44).; format: cell-based
T1 sequence (P25024 whole entry): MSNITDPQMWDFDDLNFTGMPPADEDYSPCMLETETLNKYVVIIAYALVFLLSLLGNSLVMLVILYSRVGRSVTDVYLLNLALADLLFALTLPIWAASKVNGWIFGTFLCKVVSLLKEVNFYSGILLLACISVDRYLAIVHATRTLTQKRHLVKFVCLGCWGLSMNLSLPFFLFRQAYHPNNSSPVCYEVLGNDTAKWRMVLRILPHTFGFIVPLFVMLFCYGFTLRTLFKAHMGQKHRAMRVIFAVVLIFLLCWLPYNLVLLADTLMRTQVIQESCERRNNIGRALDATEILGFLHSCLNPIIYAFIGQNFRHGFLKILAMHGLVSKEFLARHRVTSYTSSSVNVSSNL

[2] = target: T2, C-X-C chemokine receptor type 2 (Homo sapiens, UniProt P25025); assay: as §1; format: cell-based
T2 sequence (P25025 whole entry): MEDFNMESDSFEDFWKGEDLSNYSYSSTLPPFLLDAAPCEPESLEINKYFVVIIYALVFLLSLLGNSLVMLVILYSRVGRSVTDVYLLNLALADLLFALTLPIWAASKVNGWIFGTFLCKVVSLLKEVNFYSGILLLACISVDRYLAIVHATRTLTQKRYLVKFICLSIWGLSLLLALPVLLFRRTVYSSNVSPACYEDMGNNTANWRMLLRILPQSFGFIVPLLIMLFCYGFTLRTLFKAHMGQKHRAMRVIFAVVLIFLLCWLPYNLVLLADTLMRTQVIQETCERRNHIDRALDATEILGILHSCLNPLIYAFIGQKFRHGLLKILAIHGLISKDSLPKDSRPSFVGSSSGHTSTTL

| Compound | IC50 [1] | IC50 [2] |
| --- | --- | --- |
| Cc1ccc([C@H](Nc2c(Nc3csc(C(=O)N(C)C)c3O)c(=O)c2=O)C2(C)COC2)o1 | 3900 nM | 96 nM |
| Cc1ccc(C(Nc2c(Nc3cccc(C(=O)N(C)C)c3O)c(=O)c2=O)C2(C)COC2)s1 (stereo unspecified) | 3030 nM | 146 nM |
| Cc1ccc([C@H](Nc2c(Nc3cccc(C(=O)N(C)C)c3O)c(=O)c2=O)C2(C)COC2)o1 | 312 nM | 72 nM |
